In US20200031778A1, “NOVEL 5-SUBSTITUTED IMIDAZOLYLMETHYL DERIVATIVES” (Bayer CropScience Aktiengesellschaft, priority 2016, published 2020):

Test: Log P by HPLC on reversed phase columns (EEC directive 79/831 Annex V.A8; methods [a], [b], [c])
Type: physicochemical
Outline: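 Log P derived from retention times, interpolated linearly between bracketing straight-chain alkan-2-ones (3–16 carbons) of known Log P. Eluents ran acetonitrile 10% to 95% against water with 0.1% formic acid ([a], acidic), 0.001 M ammonium acetate ([b], neutral) or 0.1% phosphoric acid ([c], acidic); UV read-out.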

Structure (SMILES)	LogP	chromatographic logP (reversed phase HPLC column, method [a]: LC-UV, acidic range, 0.1% formic acid in water and acetonitrile as eluent (linear gradient from 10% to 95% acetonitrile))
CC(O)(Cn1cncc1Br)c1ccc(Oc2ccc(Br)cc2)cc1C(F)(F)F (stereo not shown) [I-192]	3.03^[a]	
OC(Cn1cncc1Br)c1ccc(Oc2ccc(Cl)cc2)cc1Br (stereo not shown) [I-24]	2.68^[a]	
N#Cc1cncn1CC(O)(c1ccc(Cl)cc1Cl)C1(F)CC1 (stereo not shown) [I-237]	2.51^[a]	
N#Cc1cncn1CC(O)c1ccc(Oc2ccc(Cl)cc2)cc1Br (stereo not shown) [I-59]	3.21^[a]	
OC(Cn1cncc1Cl)c1ccc(Oc2ccc(Br)nc2)cc1Cl (stereo not shown) [I-77]	1.92^[a]	
N#Cc1cncn1CC(O)(c1ccc(F)nc1F)C1(Cl)CC1 (stereo not shown) [I-550]	1.98^[a]	
CC(O)(Cn1cncc1Cl)c1ccc(Oc2ccc(OC(F)(F)F)cc2)cc1Cl (stereo not shown) [I-158]	3.06^[a]	
CCC(C)C(O)(Cn1cncc1C#N)c1ccc(Cl)cc1 (single isomer, unassigned) [I-326]	2.78^[a]	
N#Cc1cncn1CC(O)(c1ccccc1C(F)(F)F)C1(F)CC1 (stereo not shown) [I-348]	2.28^[a]	
N#Cc1cncn1CC(O)c1cnc(Oc2ccc(C(F)(F)F)nc2)cc1C(F)(F)F (stereo not shown) [I-118]	2.46^[a]	
N#Cc1cncn1CC(O)c1cnc(Oc2ccc(Cl)cc2)cc1C(F)(F)F (stereo not shown) [I-120]	2.87^[a]	
N#Cc1cncn1CC(O)(c1ccc(Oc2ccccc2)cc1)C1(Cl)CC1 (stereo not shown) [I-281]	3.19^[a]	
CCC(O)(Cn1cncc1C#N)c1ccc(Cl)cc1 (stereo not shown) [I-222]	2.32^[a]	
CC(C)(C)CC(O)(Cn1cncc1C#N)c1ccccc1F (stereo not shown) [I-274]	2.92^[a]	
OC(Cn1cncc1Cl)c1ccc(Oc2cccnc2)cc1Cl (stereo not shown) [I-78]	1.13^[a]	
CC(O)(Cn1cncc1C#N)c1cnc(Oc2ccc(C(F)(F)F)cc2)cc1Cl (stereo not shown) [I-254]	3.21^[a]	
OC(Cn1cncc1F)c1ccc(Oc2ccc(S(F)(F)(F)(F)F)cc2)nc1C(F)(F)F (stereo not shown) [I-147]	2.59^[a]	
CC(O)(Cn1cncc1Cl)c1ccc(Oc2ccc(Br)cn2)cc1Cl (stereo not shown) [I-204]	2.32^[a]	
N#Cc1cncn1CC(O)(c1ccc(C(F)(F)F)cc1Cl)C1(Cl)CC1 (stereo not shown) [I-264]	2.80^[a]	
OC(Cn1cncc1F)c1ccc(Oc2ccc(Br)cc2)nc1C(F)(F)F (stereo not shown) [I-103]	2.28^[a]	
OC(Cn1cncc1Cl)c1ccc(Oc2ccc(Br)cc2)cc1Br (stereo not shown) [I-45]	2.71^[a]	
N#Cc1cncn1CC(O)c1ccc(Oc2ccccc2)cc1F (stereo not shown) [I-99]	2.54^[a]	
COC(Cn1cncc1Br)c1ccc(Oc2ccc(Br)cc2)cc1Br (stereo not shown) [I-51]	3.72^[a]	
OC(Cn1cncc1F)c1ccc(Oc2ccc(Cl)cc2)cc1Cl (stereo not shown) [I-46]	2.28^[a]	

Structure (SMILES)	LogP	chromatographic logP (reversed phase HPLC column, method [a]: LC-UV, acidic range, 0.1% formic acid in water and acetonitrile as eluent (linear gradient from 10% to 95% acetonitrile))
N#Cc1cncn1CC(O)c1ccc(Oc2ccc(S(F)(F)(F)(F)F)cc2)nc1C(F)(F)F (stereo not shown) [I-146]	3.35^[a]	
CC(C)(C)CC(O)(Cn1cncc1C#N)c1ccccc1 (stereo not shown) [I-242]	2.77^[a]	
CC(O)(Cn1cncc1Br)c1ccc(Oc2ccc(Br)cc2)cc1Cl (stereo not shown) [1-174]	2.96^[a]	
CC(O)(Cn1cncc1Cl)c1cnc(Oc2ccc(Cl)cc2)cc1Br (stereo not shown) [I-177]	2.48^[a]	
OC(Cn1cncc1Cl)c1ccc(Oc2ccc(Cl)nc2)cc1C(F)(F)F (stereo not shown) [I-19]	2.14^[a]	
OC(Cn1cncc1F)c1cnc(Oc2ccc(C(F)(F)F)cc2)cc1Br (stereo not shown) [I-122]	1.94^[a]	
CC(O)(Cn1cncc1F)c1ccc(Oc2ccc(C(F)(F)F)nc2)nc1C(F)(F)F (stereo not shown) [I-290]	2.06^[a]	
CC(O)(Cn1cncc1Br)c1ccc(Oc2ccc(C(F)(F)F)cc2)cc1C(F)(F)F (stereo not shown) [I-199]	2.98^[a]	
CC(O)(Cn1cncc1Cl)c1ccc(Oc2ccc(Br)cc2)cc1C(F)(F)F (stereo not shown) [I-169]	2.90^[a]	
N#Cc1cncn1CC(O)c1ccc(Oc2ccc(Br)cc2)nc1C(F)(F)F (stereo not shown) [I-128]	3.09^[a]	
Cc1ccc(C(C)(O)Cn2cncc2C#N)cc1 (stereo not shown) [I-340]	1.75^[a]	
CCCCC(O)(Cn1cncc1C#N)c1ccccc1F (stereo not shown) [I-287]	2.51^[a]	
OC(Cn1cncc1Cl)c1ccc(Oc2ccc(C(F)(F)F)cc2)cc1 (stereo not shown) [I-13]	2.37^[a]	
N#Cc1cncn1CC(O)c1ccc(Oc2ccc(C(F)(F)F)nc2)nc1C(F)(F)F (stereo not shown) [I-143]	2.56^[a]	
CC(=O)c1cncn1CC(C)(O)c1ccc(Oc2ccc(Br)cc2)cc1Cl (stereo not shown) [I-197]	3.07^[a]	
OC(Cn1cncc1Br)c1ccc(Oc2ccc(Br)cc2)cc1Br (stereo not shown) [I-44]	2.78^[a]	
N#Cc1cncn1CC(O)c1cnc(Oc2ccc(S(F)(F)(F)(F)F)cc2)cc1C(F)(F)F (stereo not shown) [I-96]	3.44^[a]	
N#Cc1cncn1CC(O)c1ccc(Oc2ccc(C(F)(F)F)cc2)nc1C(F)(F)F (stereo not shown) [I-149]	3.13^[a]	
CC(O)(Cn1cncc1Br)c1ccc(Oc2ccc(I)cc2)cc1Cl (stereo not shown) [I-172]	3.17^[a]	
C=CCOC(Cn1cncc1C#N)c1ccc(Oc2ccc(Br)cc2)cc1C(F)(F)F (stereo not shown) [I-89]	4.69^[a]	
COC(C)(Cn1cncc1Br)c1ccc(Oc2ccc(Br)cc2)cc1C(F)(F)F (stereo not shown) [I-200]	3.89^[a]	
CCOC(Cn1cncc1C(N)=O)c1ccc(Oc2ccc(Cl)cc2)cc1C(F)(F)F (stereo not shown) [I-83]	2.54^[a]	
C#CCOC(Cn1cncc1F)c1ccc(Oc2ccc(Cl)cc2)cc1C(F)(F)F (stereo not shown) [I-106]	3.26^[a]	

Other lines, results leading:

LogP	chromatographic logP (reversed phase HPLC column, method [a]: LC-UV, acidic range, 0.1% formic acid in water and acetonitrile as eluent (linear gradient from 10% to 95% acetonitrile))	Structure (SMILES)
2.86^[a]		N#Cc1cncn1CC(O)(c1ccc(Cl)cc1F)C1CCC1 (stereo not shown) [I-448]
3.00^[a]		CCCCCCC(O)(Cn1cncc1C#N)C1(F)CC1 (stereo not shown) [I-399]
3.03^[a]		N#Cc1cncn1CC(O)(c1cc(Cl)c(Cl)c(Cl)c1)C1(F)CC1 (stereo not shown) [I-534]
2.45^[a]		N#Cc1cncn1CC(O)(c1cc(F)c(Cl)cc1F)C1(F)CC1 (stereo not shown) [I-580]
1.57^[a]		OC(Cn1cncc1F)(c1ccc(Cl)cc1F)C1(F)CC1 (stereo not shown) [I-437]
2.61^[a]		N#Cc1cncn1CC(O)(c1cc(Cl)c(F)cc1Br)C1(F)CC1 (stereo not shown) [I-687]
2.32^[a]		N#Cc1cncn1CC(O)(c1cc(F)c(F)cc1Cl)C1(F)CC1 (stereo not shown) [I-579]
2.66^[a]		N#Cc1cncn1CC(O)(c1cc(F)c(Cl)cc1F)C1(Cl)CC1 (stereo not shown) [I-583]
2.28^[a]		N#Cc1cncn1CC(O)(c1c(F)ccc(Cl)c1F)C1(F)CC1 (stereo not shown) [I-587]
2.46^[a]		N#Cc1cncn1CC(O)(c1ccc(F)cc1Br)C1CC1 (stereo not shown) [I-398]
2.49^[a]		N#Cc1cncn1CC(O)(c1cc(Br)ccc1F)C1(Cl)CC1 (stereo not shown) [I-632]
2.76^[a]		N#Cc1cncn1CC(O)(c1ccc(Br)cc1Cl)C1(F)CC1 (stereo not shown) [I-376]
2.90^[a]		N#Cc1cncn1CC(O)(C#CC1(c2ccccc2)CC1)C1(Cl)CC1 (stereo not shown) [I-606]
2.45^[a]		N#Cc1cncn1CC(O)(c1cc(Br)ccc1Cl)C1(F)CC1 (stereo not shown) [I-633]
2.25^[a]		N#Cc1cncn1CC(O)(c1cccc(F)c1Cl)C1(Cl)CC1 (stereo not shown) [I-557]
2.52^[a]		N#Cc1cncn1CC(O)(c1ccc(F)c(Cl)c1F)C1(Cl)CC1 (stereo not shown) [I-627]
3.44^[a]		N#Cc1cncn1CC(O)(CC1CCCCC1)c1ccc(F)cc1F (stereo not shown) [I-466]
2.16^[a]		O=C(Cn1cncc1F)c1ccc(Oc2ccc(C(F)(F)F)nc2)nc1C(F)(F)F [IX-130]
3.35^[a]		CCCCCCC(O)(CC1CC1)Cn1cncc1C#N (stereo not shown) [I-427]
5.19^[a]		OC(CCCC1CCCCC1)(Cn1cncc1C(F)(F)F)C1(Cl)CC1 (stereo not shown) [I-676]
2.86^[a]		N#Cc1cncn1CC(O)(c1cc(Cl)c(Br)cc1Cl)C1(F)CC1 (stereo not shown) [I-684]
2.30^[a]		N#Cc1cncn1CC(O)(CC1CC1)c1ccc(F)c(F)c1 (stereo not shown) [I-489]
3.06^[a]		O=C(Cn1cncc1F)c1ccc(Oc2ccc(S(F)(F)(F)(F)F)cc2)nc1C(F)(F)F [IX-136]
3.30^[a]		C[Si](C)(CCC(O)(Cn1cncc1C#N)C1(F)CC1)c1ccccc1 (stereo not shown) [I-668]

LogP	chromatographic logP (reversed phase HPLC column, method [a]: LC-UV, acidic range, 0.1% formic acid in water and acetonitrile as eluent (linear gradient from 10% to 95% acetonitrile))	Structure (SMILES)
2.82^[a]		CC(C)CCCC(O)(Cn1cncc1C#N)C1(F)CC1 (stereo not shown) [I-671]
2.66^[a]		N#Cc1cncn1CC(O)(c1cc(Br)c(F)cc1F)C1(Cl)CC1 (stereo not shown) [I-582]
3.37^[a]		OC(C#CC1CCCC1)(Cn1cncc1C(F)(F)F)C1(Cl)CC1 (stereo not shown) [I-603]
2.34^[a]		COc1cc(C(O)(Cn2cncc2C#N)C2(F)CC2)c(F)cc1Cl (stereo not shown) [I-508]
3.79^[a]		C[Si](C)(C)C#Cc1ccc(C(O)(Cn2cncc2C#N)C2(F)CC2)c(F)c1 (stereo not shown) [I-608]
2.70^[a]		N#Cc1cncn1CC(O)(c1cc(Cl)c(F)cc1Cl)C1(Cl)CC1 (stereo not shown) [I-581]
2.43^[a]		N#Cc1cncn1CC(O)(CC1CC1)c1cc(Cl)ccc1F (stereo not shown) [I-516]
2.36^[a]		N#Cc1cncn1CC(O)(c1cc(F)c(F)cc1Br)C1(F)CC1 (stereo not shown) [I-688]
2.07^[a]		N#Cc1cncn1CC(O)(c1c(F)cc(F)cc1F)C1(F)CC1 (stereo not shown) [I-518]
3.02^[a]		CC(C)C(O)(Cn1cncc1C#N)c1ccc(Cl)cc1Br (stereo not shown) [I-416]
2.42^[a]		N#Cc1cncn1CC(O)(c1cc(Cl)c(F)cc1F)C1(F)CC1 (stereo not shown) [I-577]
2.78^[a]		N#Cc1cncn1CC(O)(c1ccc(F)cc1F)C1CCCC1 (stereo not shown) [I-478]
2.62^[a]		N#Cc1cncn1CC(O)(c1ccc(Br)cc1F)C1CC1 (stereo not shown) [I-404]
2.31^[a]		N#Cc1cncn1CC(O)(c1cc(Br)ccc1F)C1(F)CC1 (stereo not shown) [I-631]
2.26^[a]		N#Cc1cncn1CC(O)(c1cc(F)cc(F)c1Cl)C1(F)CC1 (stereo not shown) [I-569]
3.13^[a]		CCCC(O)(Cn1cncc1C#N)c1ccc(Cl)cc1Br (stereo not shown) [I-409]
3.85^[a]		C[Si](C)(C)C=CC(O)(Cn1cncc1C(F)(F)F)C1(Cl)CC1 (stereo not shown) [I-690]
3.23^[a]		CCCC(O)(Cn1cncc1C#N)c1ccc(C(F)(F)F)cc1Cl (stereo not shown) [I-421]
3.70^[a]		C[Si](C)(CCC(O)(Cn1cncc1C#N)C1(Cl)CC1)c1ccccc1 (stereo not shown) [I-667]
	1.32	O=C(Cn1cncc1Br)c1ccc(F)cc1F [IX-121]
2.53^[a]		N#Cc1cncn1CC(O)(c1ccc(F)cc1F)C1CCC1 (stereo not shown) [I-447]
2.21^[a]		CCCC(O)(Cn1cncc1C#N)c1ccc(F)cc1 (stereo not shown) [I-378]
2.44^[a]		N#Cc1cncn1CC(O)(c1cc(Cl)cc(F)c1F)C1(F)CC1 (stereo not shown) [I-570]
